One assay concerns 4T1 breast tumor cells. The assay is described as follows: 4T1 metastatic recurrence after chemotherapy and surgical removal of primary tumor. It is filed as in vivo, mice. As to conditions: 100 mg/kg once daily by gavage starting on Day 3, with paclitaxel and surgery; compared to chemotherapy alone, p < 0.05; Day 32. On the procedure: Female BALB/c mice (6- to 8-week old) were purchased from Charles River Labs. The 4T1 tumor cells (1 × 10^5) were injected subcutaneously into the abdominal mammary gland area of mice using 0.1 mL of a single-cell suspension in PBS-matrigel (v/v, 1:1) on Day 0 as previously described. […] On Day 28, the mice were sacrificed. […] The numbers of metastatic 4T1 cells in lungs were determined by a clonogenic assay. In brief, the lungs were removed from each mouse, finely minced and digested in 5 mL of an enzyme cocktail containing 1 × PBS and 1 mg/mL collagenase type IV for 2 h at 37 ℃ on a platform rocker. After incubation, samples were filtered through 70-µm nylon cell strainers and washed twice with PBS. The resulting cells were suspended and plated with a series of dilutions in 10-cm tissue culture dishes in DMEM medium containing 60 µM thioguanine for clonogenic growth. As 4T1 tumor cells are resistant to 6-thioguanine, the metastasized tumor cells formed foci after 14 days, at which time they were fixed with 4% paraformaldehyde and stained with crystal violet staining solution for counting. For the experiments in Figure 2F,G, 4T1 tumor cells (1 × 10^5) suspended in PBS-matrigel (v/v, 1:1) were injected subcutaneously into the abdominal mammary gland area of mice on day 0. Starting on Day 3, NP-G2-044 was given to mice once every day by oral gavage at 100 mg kg^−1 per mouse. […]

Another assay deals with U2932 lymphoma cells. The assay is described as follows: U2932 lymphoma model in NSG mice (tumor growth, liver metastasis, overall survival). Type of assay: in vivo. On the procedure: For the lymphoma model, U2932 cells (5 × 10^6) suspended in PBS-matrigel (v/v, 1:1) were subcutaneously injected into NSG mice on Say 0. Starting on Day 49, NP-G2-044 was given once a day for 5 days every week by gavage at 300 mg kg^−1 per mouse until their death. Starting on Day 49, LY2409881 was given once weekly by intraperitoneal injection at 50 mg kg^−1 per mouse for 8 times. The control solvent was given according to their body weights until their death. […] The primary tumors and livers shown in the figure were dissected on Day 67.

In assay [1] the test system is NF-κB nuclear translocation in HT cells. The assay is described as follows: p65 (NF-κB) nuclear translocation, Western blotting, HT. Type of assay: cell-based. The note with it: 30 µM, 16 h.
A further assay relates to Ly10 cells. Description: Cell growth assay, Ly10. As to conditions: Ly10 cells in culture, 4 days.
Where [2] appears, read: treatment from Day 49, vs control group.

Protocol for Ly10 cells: We then extended our search to other types of lymphoma cells. […] Both U2932 and Ly10 cells are ABC-subtype DLBCLs, and HT cells are diffuse mixed lymphoma.
For NP-G2-044 dose-dependent studies, 1 × 10^5 Ly10, U2932, or HT cells were seeded in a 12- or 24-well plate on day 0. A total of 1, 3, 10, 30, or 100 μM NP-G2-044 or control solvent was added to the plates. Cells were collected and counted on day 4. For time-dependent studies, 1 × 10^5 Ly10, U2932, or HT cells were seeded in a 12- or 24-well plate on day 0. A total of 30 μM NP-G2-044, 5 μM LY2409881, 30 μM NP-G2-044 plus 5 μM LY2409881, or control solvent was added to the plates. Cells were collected and counted on Days 2 and 4. […] The cell growth index was expressed as the fold changes of cell numbers over the starting cell number. For these assays, the old medium was changed with a fresh medium containing the control solvent or the inhibitors every two days.

Turning to `Cc1occc1C(=O)Nc1nn(Cc2ccc(C(F)(F)F)cc2)c2ccccc12` [NP-G2-044], in the assay on 4T1 breast tumor cells, the “metastatic recurrence of breast tumors in the lung” value was “slowed the metastatic recurrence”. The “metastasis of implanted lymphoma cells to the liver” value with U2932 lymphoma cells (livers dissected on Day 67) is recorded as “blocked the metastasis to the liver”. Further, in the assay with U2932 lymphoma cells (setting [2]), the “increase of median overall survival” value was determined as 79%, the overall survival result is recorded as “increased” and the primary tumor growth result is on record as “decreased”. For the same molecule, the “nuclear translocation of the p65 subunits” value in assay [1] is recorded as “also observed”. The “effect on cell growth” value with Ly10 cells is reported as “inhibitory effect”.

(Values after publication PMC7466159, “Anti-Metastasis Fascin Inhibitors Decrease the Growth of Specific Subtypes of Cancers” (Cancers, 2020).)
